In this assay the target is T1, DNA-PK phosphorylation at Serine 2056 (Homo sapiens, UniProt P78527).
T1 construct: host or cells: FaDu
Put plainly: Cellular Assay for Inhibition of DNA-PK Phosphorylation at Serine 2056 (FaDu cells, neocarzinostatin, sandwich ELISA). It is filed as cell-based. Particulars: Table 3. The protocol:
FaDu cells were purchased from ATCC and maintained in MEM alpha medium (Life Technologies, cat. no. 12561) supplemented with 10% fetal bovine serum, and 1% GlutaMAX at 37° C. supplemented with 5% CO2. 50,000 cells were seeded to each well of a 96-well cell culture plate in 50 μL of culture medium and incubated for 16-24 hours. Three-fold serially diluted compounds were prepared in DMSO. Culture media was used to prepare compound treatments to 0.3% DMSO (dimethyl sulphoxide) content. Compound treatments were added to the cells for 1 hour prior incubation, followed by the addition of neocarzinostatin in fresh culture medium to 1 μg/mL final concentration for an additional 2 hours incubation to induce DNA DSBs (double-strand breaks). DMSO controls were incubated with fresh culture medium alone for the additional two hours incubation. The cells were then lysed and frozen at −20° C. Cell lysates were thawed on wet ice and protein concentrations quantified by BCA Protein Assay (Thermo # 23225). Lysis buffer was used to normalize lysates by protein content and all lysates were then investigated by sandwich ELISA by means of DNA-PK-specific antibodies (Abcam ab44815: total DNA-PK; ab124918: phosphoserine-2056 DNA-PK) in sandwich ELISA format on the MSD S600MM platform (MesoScale Discovery). % inhibition was calculated for all data points: =1−(DATA_PT−AVERAGE(DMSO controls))/(AVERAGE(NCS controls)−AVERAGE(DMSO controls)). Logarithm of the molar concentration of compound was plotted against percent inhibition to calculate IC50 values, with curve fit settings for data fit to log(inhibitor) vs. normalized response—Variable slope using curve fit software (GraphPad Prism).
Background: In an ELISA, binding on a coated surface is turned into a signal by an enzyme label.

Data on 29 molecules can be found in US20240246960A1 (adMare Therapeutics Society, priority 2021, published 2024).

Usually IC50 stands for the concentration at which inhibition is half-maximal. `COc1nc(N[C@H]2CC[C@@H](Oc3nc(N4CCOCC4)cc4ncc(NS(C)(=O)=O)cc34)CC2)ncc1C` [LFA1040, N-[5-[4-[(4-methoxy-5-methyl-pyrimidin-2-yl)amino]cyclohexoxy]-7-morpholino-1,6-naphthyridin-3-yl]methanesulfonamide] had a half-inhibitory concentration (IC50) of 100 to 1000 nM. In turn, `Cc1cnc(N[C@H]2CC[C@@H](Oc3nc(N4CCOCC4)cc4ncc(NS(C)(=O)=O)cc34)CC2)c(C)c1` [LFA1009, N-[5-[4-[(3,5-dimethyl-2-pyridyl)amino]cyclohexoxy]-7-morpholino-1,6-naphthyridin-3-yl]methanesulfonamide] showed an IC50 of less than 100 nM. On to `Cc1cnc(N[C@H]2CC[C@@H](Oc3nc(N4CCOCC4)cc4ncc(O)cc34)CC2)c(C)c1` [LFA1052, 5-[4-[(3,5-dimethyl-2-pyridyl)amino]cyclohexoxy]-7-morpholino-1,6-naphthyridin-3-ol], for which the IC50 was in the range of 1000 to 10000 nM. “N-[5-[4-[(4,6-dimethylpyrimidin-2-yl)amino]cyclohexoxy]-7-morpholino-1,6-naphthyridin-3-yl]methanesulfonamide;2,2,2-trifluoroacetic acid [LFA1046]”: the IC50 lay within 100 to 1000 nM. `COc1cncc(N[C@H]2CC[C@@H](Oc3nc(N4CCOCC4)cc4ncc(NS(C)(=O)=O)cc34)CC2)c1` [LFA1013, N-[5-[4-[(5-methoxy-3-pyridyl)amino]cyclohexoxy]-7-morpholino-1,6-naphthyridin-3-yl]methanesulfonamide] gave an IC50 of 100 to 1000 nM. For `CS(=O)(=O)Nc1cnc2cc(N3CCOCC3)nc(O[C@H]3CC[C@@H](Nc4nccc(C#N)n4)CC3)c2c1` [LFA1042, N-[5-[4-[(4-cyanopyrimidin-2-yl)amino]cyclohexoxy]-7-morpholino-1,6-naphthyridin-3-yl]methanesulfonamide;2,2,2-trifluoroacetic acid], the 50% inhibitory concentration (IC50) was less than 100 nM. The molecule `N#Cc1cnc(N[C@H]2CC[C@@H](Oc3nc(N4CCOCC4)cc4ncc(O)cc34)CC2)cn1` [LFA1026, 5-[[4-[(3-hydroxy-7-morpholino-1,6-naphthyridin-5-yl)oxy]cyclohexyl]amino]pyrazine-2-carbonitrile] had an IC50 of 100 to 1000 nM. Next, `Cc1ccc(N[C@H]2CC[C@@H](Oc3nc(N4CCOCC4)cc4ncc(NS(C)(=O)=O)cc34)CC2)cn1` [LFA1017, N-[5-[4-[(6-methyl-3-pyridyl)amino]cyclohexoxy]-7-morpholino-1,6-naphthyridin-3-yl]methanesulfonamide]: 100 to 1000 nM; `Cc1ccnc(N[C@H]2CC[C@@H](Oc3nc(N4CCOCC4)cc4ncc(NS(C)(=O)=O)cc34)CC2)n1` [LFA1047]: less than 100 nM; `CS(=O)(=O)Nc1cnc2cc(N3CCOCC3)nc(O[C@H]3CC[C@@H](Nc4cnccn4)CC3)c2c1` [LFA1045, N-[7-morpholino-5-[4-(pyrazin-2-ylamino)cyclohexoxy]-1,6-naphthyridin-3-yl]methanesulfonamide;2,2,2-trifluoroacetic acid]: less than 100 nM. `CS(=O)(=O)Nc1cnc2cc(N3CCOCC3)nc(O[C@H]3CC[C@@H](Nc4cnc(C#N)cn4)CC3)c2c1` [LFA1036, N-[5-[4-[(5-cyanopyrazin-2-yl)amino]cyclohexoxy]-7-morpholino-1,6-naphthyridin-3-yl]methanesulfonamide]: the IC50 is less than 100 nM. Next, `Cc1cccnc1N[C@H]1CC[C@@H](Oc2nc(N3CCOCC3)cc3ncc(NS(C)(=O)=O)cc23)CC1` [LFA1003, N-[5-[4-[(3-methyl-2-pyridyl)amino]cyclohexoxy]-7-morpholino-1,6-naphthyridin-3-yl]methanesulfonamide]: less than 100 nM; `Cc1ccc(N[C@H]2CC[C@@H](Oc3nc(N4CCOCC4)cc4ncc(NS(C)(=O)=O)cc34)CC2)nc1` [LFA1019, N-[5-[4-[(5-methyl-2-pyridyl)amino]cyclohexoxy]-7-morpholino-1,6-naphthyridin-3-yl]methanesulfonamide]: less than 100 nM; `COc1cccnc1N[C@H]1CC[C@@H](Oc2nc(N3CCOCC3)cc3ncc(NS(C)(=O)=O)cc23)CC1` [LFA1005, N-[5-[4-[(3-methoxy-2-pyridyl)amino]cyclohexoxy]-7-morpholino-1,6-naphthyridin-3-yl]methanesulfonamide]: less than 100 nM. The value for `Cc1ccc(N[C@H]2CC[C@@H](Oc3nc(N4CCOCC4)cc4ncc(O)cc34)CC2)nc1` [LFA1051, 5-[4-[(5-methyl-2-pyridyl)amino]cyclohexoxy]-7-morpholino-1,6-naphthyridin-3-ol] was 100 to 1000 nM. The value for `COc1cnc(N[C@H]2CC[C@@H](Oc3nc(N4CCOCC4)cc4ncc(NS(C)(=O)=O)cc34)CC2)cn1` [LFA1028, N-[5-[4-[(5-methoxypyrazin-2-yl)amino]cyclohexoxy]-7-morpholino-1,6-naphthyridin-3-yl]methanesulfonamide] was less than 100 nM.

For `CS(=O)(=O)Nc1cnc2cc(N3CCOCC3)nc(O[C@H]3CC[C@@H](Nc4ccnc(C#N)n4)CC3)c2c1` [LFA1033, N-[5-[4-[(2-cyanopyrimidin-4-yl)amino]cyclohexoxy]-7-morpholino-1,6-naphthyridin-3-yl]methanesulfonamide], the IC50 is 100 to 1000 nM. Molecule `Cc1cccc(N[C@H]2CC[C@@H](Oc3nc(N4CCOCC4)cc4ncc(NS(C)(=O)=O)cc34)CC2)n1` [LFA1006, N-[5-[4-[(6-methyl-2-pyridyl)amino]cyclohexoxy]-7-morpholino-1,6-naphthyridin-3-yl]methanesulfonamide] registered an IC50 of less than 100 nM.

As to `Cc1ccc(N[C@H]2CC[C@@H](Oc3nc(N4CCOCC4)cc4ncc(O)cc34)CC2)cn1` [LFA1053, 5-[4-[(6-methyl-3-pyridyl)amino]cyclohexoxy]-7-morpholino-1,6-naphthyridin-3-ol], the concentration for half-maximal inhibition (IC50) lay within 100 to 1000 nM. Next, `CS(=O)(=O)Nc1cnc2cc(N3CCOCC3)nc(O[C@H]3CC[C@@H](Nc4nccnc4C#N)CC3)c2c1` [LFA1032, N-[5-[4-[(3-cyanopyrazin-2-yl)amino]cyclohexoxy]-7-morpholino-1,6-naphthyridin-3-yl]methanesulfonamide]: less than 100 nM.

Regarding `CN(C)c1ccnc(N[C@H]2CC[C@@H](Oc3nc(N4CCOCC4)cc4ncc(NS(C)(=O)=O)cc34)CC2)n1` [LFA1041, N-[5-[4-[[4-(dimethylamino)pyrimidin-2-yl]amino]cyclohexoxy]-7-morpholino-1,6-naphthyridin-3-yl]methanesulfonamide], the IC50 lay in the range of 100 to 1000 nM. `CS(=O)(=O)Nc1cnc2cc(N3CCOCC3)nc(O[C@H]3CC[C@@H](Nc4nccnc4C(F)(F)F)CC3)c2c1` [LFA1029, N-[7-morpholino-5-[4-[[3-(trifluoromethyl)pyrazin-2-yl]amino]cyclohexoxy]-1,6-naphthyridin-3-yl]methanesulfonamide] registered a half-maximal inhibitory concentration (IC50) of less than 100 nM. Molecule `Cc1cc(C#N)nc(N[C@H]2CC[C@@H](Oc3nc(N4CCOCC4)cc4ncc(NS(C)(=O)=O)cc34)CC2)n1` [LFA1043, N-[5-[4-[(4-cyano-6-methyl-pyrimidin-2-yl)amino]cyclohexoxy]-7-morpholino-1,6-naphthyridin-3-yl]methanesulfonamide;2,2,2-trifluoroacetic acid] displayed an IC50 of less than 100 nM. Next, `Cc1ncccc1N[C@H]1CC[C@@H](Oc2nc(N3CCOCC3)cc3ncc(NS(C)(=O)=O)cc23)CC1` [LFA1015, N-[5-[4-[(2-methyl-3-pyridyl)amino]cyclohexoxy]-7-morpholino-1,6-naphthyridin-3-yl]methanesulfonamide]: less than 100 nM; `Cc1cc(C)nc(N[C@H]2CC[C@@H](Oc3nc(N4CCOCC4)cc4ncc(O)cc34)CC2)n1` [LFA1057, 5-[4-[(4,6-dimethylpyrimidin-2-yl)amino]cyclohexoxy]-7-morpholino-1,6-naphthyridin-3-ol]: less than 100 nM. The value for `COc1cc(C#N)cnc1N[C@H]1CC[C@@H](Oc2nc(N3CCOCC3)cc3ncc(NS(C)(=O)=O)cc23)CC1` [LFA1025, N-[5-[4-[(5-cyano-3-methoxy-2-pyridyl)amino]cyclohexoxy]-7-morpholino-1,6-naphthyridin-3-yl]methanesulfonamide] was less than 100 nM; that for `CS(=O)(=O)Nc1cnc2cc(N3CCOCC3)nc(O[C@H]3CC[C@@H](Nc4ccc(F)cn4)CC3)c2c1` [LFA1004, N-[5-[4-[(5-fluoro-2-pyridyl)amino]cyclohexoxy]-7-morpholino-1,6-naphthyridin-3-yl]methanesulfonamide] was less than 100 nM.

`CS(=O)(=O)Nc1cnc2cc(N3CCOCC3)nc(O[C@H]3CC[C@@H](Nc4ncccc4C#N)CC3)c2c1` [LFA1008, N-[5-[4-[(3-cyano-2-pyridyl)amino]cyclohexoxy]-7-morpholino-1,6-naphthyridin-3-yl]methanesulfonamide] yielded an IC50 of less than 100 nM. Turning to `Cc1nc(N[C@H]2CC[C@@H](Oc3nc(N4CCOCC4)cc4ncc(NS(C)(=O)=O)cc34)CC2)ccc1F` [LFA1018, N-[5-[4-[(5-fluoro-6-methyl-2-pyridyl)amino]cyclohexoxy]-7-morpholino-1,6-naphthyridin-3-yl]methanesulfonamide], the 50% inhibitory concentration (IC50) was less than 100 nM.
